In patent US20090082399A1, “Carbamate derivatives as positive allosteric modulators of metabotropic glutamate receptors” (Addex Pharma SA, priority 2005, published 2009):

How the values were obtained:
rat mGluR5 = molecular target: T1, rat mGluR5 (Rattus norvegicus, UniProt P31424); test: mGluR5 assay on HEK-expressing rat mGluR5 (fluorescent cell based Ca2+ mobilization assay); conditions: for activation of rat mGluR5 receptors without co-addition of glutamate: HEK-rat mGluR5 cell line, no added glutamate or mGluR5 agonist; for EC50: HEK-293 cells stably expressing rat mGluR5, no co-addition of glutamate, mean of at least three independent experiments in duplicate, read-out: Ca2+ Flux (mean EC50)
T1 construct: expressed in transfected cells
T1 sequence (P31424 21-1171 isoform P31424-2 limits assumed): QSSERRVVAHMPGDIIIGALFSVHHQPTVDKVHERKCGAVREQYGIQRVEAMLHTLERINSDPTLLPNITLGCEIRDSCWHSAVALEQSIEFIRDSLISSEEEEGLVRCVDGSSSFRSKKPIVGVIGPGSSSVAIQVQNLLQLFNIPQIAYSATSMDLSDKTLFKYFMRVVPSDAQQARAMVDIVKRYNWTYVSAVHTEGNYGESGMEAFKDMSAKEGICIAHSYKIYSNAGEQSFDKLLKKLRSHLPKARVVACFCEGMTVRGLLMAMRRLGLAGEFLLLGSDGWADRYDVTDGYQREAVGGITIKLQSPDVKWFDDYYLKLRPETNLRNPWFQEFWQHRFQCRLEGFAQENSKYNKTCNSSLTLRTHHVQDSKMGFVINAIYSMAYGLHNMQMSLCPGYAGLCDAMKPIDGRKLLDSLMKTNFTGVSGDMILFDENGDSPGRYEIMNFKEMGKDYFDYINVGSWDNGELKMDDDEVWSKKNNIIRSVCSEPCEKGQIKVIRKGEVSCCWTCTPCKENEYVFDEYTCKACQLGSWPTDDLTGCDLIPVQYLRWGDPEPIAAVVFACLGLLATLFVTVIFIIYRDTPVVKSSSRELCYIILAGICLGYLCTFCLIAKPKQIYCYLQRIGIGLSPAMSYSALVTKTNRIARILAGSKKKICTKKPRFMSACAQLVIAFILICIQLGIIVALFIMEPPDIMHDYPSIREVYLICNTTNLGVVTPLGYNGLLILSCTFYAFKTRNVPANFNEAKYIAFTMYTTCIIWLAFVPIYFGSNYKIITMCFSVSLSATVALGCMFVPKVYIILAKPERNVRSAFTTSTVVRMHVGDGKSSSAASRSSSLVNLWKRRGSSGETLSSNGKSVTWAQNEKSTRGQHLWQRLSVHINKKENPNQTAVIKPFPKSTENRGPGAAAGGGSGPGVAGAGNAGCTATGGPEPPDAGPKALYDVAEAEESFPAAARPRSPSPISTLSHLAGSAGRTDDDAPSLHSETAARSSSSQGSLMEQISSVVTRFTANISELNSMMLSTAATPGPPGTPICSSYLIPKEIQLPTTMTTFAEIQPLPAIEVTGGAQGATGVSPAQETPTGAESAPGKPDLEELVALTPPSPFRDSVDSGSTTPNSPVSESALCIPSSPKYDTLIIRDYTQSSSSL
Method: Positive functional expression of HEK-293 cells stably expressing rat mGluR5 receptor was determined by measuring intracellular Ca^2+ changes using a Fluorometric Imaging Plate Reader (FLIPR, Molecular Devices, Sunnyvale, Calif.) in response to glutamate or selective known mGluR5 agonists and antagonists. Rat mGluR5 RT-PCR products in HEK-293 cells were sequenced and found 100% identical to rat mGluR5 Genbank reference sequence (NM_017012). HEK-293 cells expressing mGluR5 were maintained in media containing DMEM, dialyzed Fetal Bovine Serum (10%), Glutamax™ (2 mM), Penicillin (100 units/ml), Streptomycin (100 μg/ml), Geneticin (100 μg/ml) and Hygromycin-B (40 μg/ml) at 37° C./5% CO2.
After one day of incubation, cells were washed with assay buffer containing: 142 mM NaCl, 6 mM KCl, 1 mM […], 1 mM CaCl2, 20 mM HEPES, 1 g/L glucose, 0.125 mM sulfinpyrazone, pH 7.4. After 60 min of loading with 4 uM Fluo-4 (TefLabs, Austin, Tex.), the cells were washed three times with 50 μl of PBS Buffer and resuspended in 45 μl of assay Buffer. The plates were then transferred to a Fluorometric Imaging Plate Reader (FLIPR, Molecular Devices, Sunnyvale, Calif.) for the assessment of intracellular calcium flux. After monitoring the baseline fluorescence for 10 seconds, increasing concentrations of representative compound (from 0.01 to 60 μM) of the present invention diluted in Assay Buffer (15 μl of 4× dilutions) was added to the cell. The final DMSO concentration in the assay was 0.3%. In each experiment, fluorescence was then monitored as a function of time for 3 minutes and the data analyzed using Microsoft Excel and GraphPad Prism. Each data point was also measured two times.
Under these experimental conditions, this HEK-rat mGluR5 cell line is able to directly detect positive allosteric modulators without the need of co-addition of glutamate or mGluR5 agonist.
The concentration-response curves of representative compounds of the present invention were generated using the Prism GraphPad software (Graph Pad Inc, San Diego, USA). The curves were fitted to a four-parameter logistic equation:
(Y=Bottom+(Top−Bottom)/(1+10̂((Log EC50−X)*Hill Slope)
allowing determination of EC50 values.
The Table 1 below represents the mean EC50 obtained from at least three independent experiments of selected molecules performed in duplicate.

mGluR5 [1] = molecular target: T2, mGluR5 (Rattus norvegicus, UniProt P31424); conditions: cited from earlier work
T2 construct: positive allosteric modulators of mGluR5 receptors in native preparations; endogenous in cells; host or cells: primary cortical astrocytes from Sprague-Dawley rat embryos (E16-19)
T2 sequence (P31424 21-1203): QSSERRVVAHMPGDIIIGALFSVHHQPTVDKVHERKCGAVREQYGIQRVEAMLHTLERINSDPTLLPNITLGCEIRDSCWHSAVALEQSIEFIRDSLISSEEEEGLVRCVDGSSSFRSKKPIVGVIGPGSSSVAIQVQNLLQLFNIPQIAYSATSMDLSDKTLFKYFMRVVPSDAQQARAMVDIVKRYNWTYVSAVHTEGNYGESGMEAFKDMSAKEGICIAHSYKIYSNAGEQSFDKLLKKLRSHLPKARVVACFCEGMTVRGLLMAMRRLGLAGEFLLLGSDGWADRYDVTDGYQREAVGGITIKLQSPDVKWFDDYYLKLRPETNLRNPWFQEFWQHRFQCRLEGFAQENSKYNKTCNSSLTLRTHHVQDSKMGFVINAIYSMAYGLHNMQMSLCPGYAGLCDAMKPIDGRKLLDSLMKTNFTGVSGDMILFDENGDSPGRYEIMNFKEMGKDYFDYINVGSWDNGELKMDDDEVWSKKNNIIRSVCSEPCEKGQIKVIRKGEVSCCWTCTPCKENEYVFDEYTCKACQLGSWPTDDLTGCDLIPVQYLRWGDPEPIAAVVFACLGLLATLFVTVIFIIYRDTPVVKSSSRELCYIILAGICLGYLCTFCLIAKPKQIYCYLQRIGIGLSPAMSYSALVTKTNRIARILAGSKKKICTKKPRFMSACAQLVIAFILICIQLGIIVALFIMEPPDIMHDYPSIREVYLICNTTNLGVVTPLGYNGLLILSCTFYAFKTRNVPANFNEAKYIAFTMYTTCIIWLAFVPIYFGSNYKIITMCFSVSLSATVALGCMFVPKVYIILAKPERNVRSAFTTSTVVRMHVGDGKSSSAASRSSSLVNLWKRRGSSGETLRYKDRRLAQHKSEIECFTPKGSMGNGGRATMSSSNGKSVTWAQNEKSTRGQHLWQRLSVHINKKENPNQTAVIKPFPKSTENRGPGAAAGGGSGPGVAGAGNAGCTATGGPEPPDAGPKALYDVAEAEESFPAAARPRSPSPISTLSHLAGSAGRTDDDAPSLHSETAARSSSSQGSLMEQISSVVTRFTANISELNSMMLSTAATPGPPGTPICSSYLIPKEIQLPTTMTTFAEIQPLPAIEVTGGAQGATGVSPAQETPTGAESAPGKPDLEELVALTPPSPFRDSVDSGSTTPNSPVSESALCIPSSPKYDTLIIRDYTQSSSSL

mGluR5 [2] = molecular target: T2, mGluR5; test: mGluR5 binding assay ([3H]-MPEP, rat brain membranes); conditions: 3 nM [3H]-MPEP, rat cortex membranes, 1 h at 4° C.; read-out: IC50, inhibition of [3H]-MPEP binding
Text: Activity of compounds of the invention was examined following a radioligand binding technique using whole rat brain and tritiated 2-methyl-6-(phenylethynyl)-pyridine ([^3H]-MPEP) as a ligand following similar methods than those described in Gasparini F. et al. (2002) Bioorg. Med. Chem. Lett., 12, 407-409 and in Anderson J. F. et al. J. Pharmacol. Exp. Ther. 2002, 303, 3, 1044-1051.
Cortices were dissected out from brains of 200-300 g Sprague-Dawley rats (Charles River Laboratories, L'Arbresle, France). Tissues were homogenized in 10 volumes (vol/wt) of ice-cold 50 mM Hepes-NaOH (pH 7.4) using a Polytron disrupter (Kinematica AG, Luzern, Switzerland) and centrifuged for 30 min at 40,000 g. (4° C.). […] Protein concentration was determined by the Bradford method (Bio-Rad protein assay, Reinach, Switzerland) with bovine serum albumin as standard.
Membranes were thawed and resuspended in binding buffer containing 20 mM HEPES-NaOH, 3 mM MgCl2, 3 mM CaCl2, 100 mM NaCl, pH 7.4. […] Radioactivity was determined by liquid scintillation spectrometry using a 96-well plate reader (TopCount, Perkin-Elmer, Downers Grove, USA).
The inhibition curves were generated using the Prism GraphPad program (Graph Pad Software Inc, San Diego, USA). […] The mean of IC50 obtained from at least three independent experiments of selected molecules performed in duplicate were calculated.

EC50 (rat mGluR5) [nM] | Structure (SMILES) | further results
 | N#Cc1cccc(C(=O)Nc2cc(-c3ccccc3)nn2-c2ccccc2)c1 [CDPPB, reference compound] | activation of rat mGluR5 receptors without co-addition of glutamate (rat mGluR5): activating; activity in rat cortical astrocytes culture in the absence of added glutamate (mGluR5 [1]): inactive
1000 to 10000 | COc1ccc(NC(=O)O[C@H]2CCCN(C(=O)c3ccc(F)cc3)C2)cc1 [Example 3, (4-Methoxy-phenyl)-carbamic acid (S)-1-(4-fluoro-benzoyl)-piperidin-3-yl ester] | 
 | O=C(Nc1ccc(Cl)cc1CN1C(=O)c2ccccc2C1=O)c1ccccc1O [CPPHA, reference compound] | activation of rat mGluR5 receptors without co-addition of glutamate (rat mGluR5): activating; activity in rat cortical astrocytes culture in the absence of added glutamate (mGluR5 [1]): inactive
 | Fc1cccc(/C=N/N=C/c2cccc(F)c2)c1 [DFB, reference compound] | activation of rat mGluR5 receptors without co-addition of glutamate (rat mGluR5): activating; activity in rat cortical astrocytes culture in the absence of added glutamate (mGluR5 [1]): inactive
1000 to 10000 | O=C(Nc1ccc(Cl)cc1)O[C@H]1CCCN(C(=O)c2ccc(F)cc2)C1 [Example 2, (4-Chloro-phenyl)-carbamic acid (S)-1-(4-fluoro-benzoyl)-piperidin-3-yl ester] | 
1000 to 10000 | O=C(Nc1ccncc1)O[C@H]1CCCN(C(=O)c2ccc(F)cc2)C1 [Example 9, Pyridin-4-yl-carbamic acid (S)-1-(4-fluoro-benzoyl)-piperidin-3-yl ester] | 
> 10000 | O=C(NC1CCCC1)O[C@H]1CCCN(C(=O)c2ccc(F)cc2)C1 [Example 7, Cyclopentyl-carbamic acid (S)-1-(4-fluoro-benzoyl)-piperidin-3-yl ester] | 
< 1000 | O=C(Nc1ccccc1F)O[C@H]1CCCN(C(=O)c2ccc(F)cc2)C1 [Example 6, (2-Fluoro-phenyl)-carbamic acid (S)-1-(4-fluoro-benzoyl)-piperidin-3-yl ester] | 
1000 to 10000 | O=C(Nc1ccccc1)OC1CCN(C(=O)c2ccc(F)cc2)C1 (stereo not drawn) [Example 12, (Phenyl)-carbamic acid-1-(4-fluoro-benzoyl)-pyrrolidin-3-yl ester] | melting point: 173 to 175 °C
1000 to 10000 | O=C(NCc1ccc(F)cc1)O[C@H]1CCCN(C(=O)c2ccc(F)cc2)C1 [Example 10, (4-Fluoro-benzyl)-carbamic acid (S)-1-(4-fluoro-benzoyl)-piperidin-3-yl ester] | 
1000 to 10000 | O=C(NC1CCCCC1)O[C@H]1CCCN(C(=O)c2ccc(F)cc2)C1 [Example 8, Cyclohexyl-carbamic acid (S)-1-(4-fluoro-benzoyl)-piperidin-3-yl ester] | 
< 1000 | O=C(Nc1cccc(F)c1)O[C@H]1CCCN(C(=O)c2ccc(F)cc2)C1 [Example 5, (3-Fluoro-phenyl)-carbamic acid (S)-1-(4-fluoro-benzoyl)-piperidin-3-yl ester] | 
< 1000 | O=C(Nc1ccccc1)O[C@H]1CCCN(C(=O)c2ccc(F)cc2)C1 [Example 4, Phenyl-carbamic acid (S)-1-(4-fluoro-benzoyl)-piperidin-3-yl ester] | 
1000 to 10000 | O=C(Nc1ccc(F)cc1)N[C@H]1CCCN(C(=O)c2ccc(F)cc2)C1 [Example 11, 1-[(S)-1-(4-Fluoro-benzoyl)-piperidin-3-yl]-3-(4-fluoro-phenyl)-urea] | melting point: 228 to 231 °C
1000 to 10000 | O=C(Nc1ccc(F)cc1)O[C@H]1CCCN(C(=O)c2ccc(F)cc2)C1 [Example 1, (4-Fluoro-phenyl)-carbamic acid (S)-1-(4-fluoro-benzoyl)-piperidin-3-yl ester] | IC50 (mGluR5 [2]): < 30000 nM
